From patent publication US8859596B2, “Compounds as cannabinoid receptor ligands” (priority 2008, dated 2014)
Where two headings read alike, the source gives them in different places.

Experiments:
human CB2 receptors = human CB2 receptors (Homo sapiens (Human), UniProt P34972); experiment: human CB2 radioligand binding assay ([3H]CP 55,940 competition)
Experimental: (§1) The CB1 and CB2 radioligand binding assays described herein are utilized to ascertain the affinity of compounds of the present application for binding to CB2 relative to CB1 receptors.
HEK293 cells stably expressing human CB2 receptors were grown until a confluent monolayer was formed. Briefly, the cells were harvested and homogenized in TE buffer (50 mM Tris-HCl, 1 mM MgCl2, and 1 mM EDTA) using a polytron for 2×10 second bursts in the presence of protease inhibitors, followed by centrifugation at 45,000×g for 20 minutes. The final membrane pellet was re-homogenized in storage buffer (50 mM Tris-HCl, 1 mM MgCl2, and 1 mM EDTA and 10% sucrose) and frozen at −78° C. until used. Saturation binding reactions were initiated by the addition of membrane preparation (protein concentration of 5 μg/well for human CB2) into wells of a deep well plate containing [^3H]CP 55,940 (120 Ci/mmol, a nonselective CB agonist commercially available from Tocris) in assay buffer (50 mM Tris, 2.5 mM EDTA, 5 mM MgCl2, and 0.5 mg/mL fatty acid free BSA, pH 7.4). After 90 min incubation at 30° C., binding reaction was terminated by the addition of 300 μL/well of cold assay buffer followed by rapid vacuum filtration through a UniFilter-96 GF/C filter plates (pre-soaked in 1 mg/mL BSA for 2 hours). The bound activity was counted in a TopCount using Microscint-20. Saturation experiments were conducted with twelve concentrations of [^3H]CP 55,940 ranging from 0.01 to 8 nM. Competition experiments were conducted with 0.5 nM [^3H]CP 55,940 and five concentrations (0.01 nM to 10 μM) of displacing ligands. The addition of 10 μM unlabeled CP 55,940 (Tocris, Ellisville, Mo.) was used to assess nonspecific binding.

rat CB2 [1] = target: T1, rat CB2 (Rattus norvegicus (Rat), UniProt Q9QZN9); experiment: rat CB2 radioligand binding assay ([3H]CP 55,940 competition)
T1 sequence (Q9QZN9 whole entry): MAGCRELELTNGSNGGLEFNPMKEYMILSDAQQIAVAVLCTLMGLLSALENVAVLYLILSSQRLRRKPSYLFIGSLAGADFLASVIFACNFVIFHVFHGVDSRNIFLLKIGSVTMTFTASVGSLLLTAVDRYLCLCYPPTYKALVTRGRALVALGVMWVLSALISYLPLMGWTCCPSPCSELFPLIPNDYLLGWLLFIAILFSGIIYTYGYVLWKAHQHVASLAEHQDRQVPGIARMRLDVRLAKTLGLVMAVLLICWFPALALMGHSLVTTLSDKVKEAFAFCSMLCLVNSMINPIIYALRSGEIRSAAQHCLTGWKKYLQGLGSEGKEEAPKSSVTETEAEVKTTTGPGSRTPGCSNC
Experimental: as §1
HEK293 cells stably expressing rat CB2 receptors were grown until a confluent monolayer was formed. Briefly, the cells were harvested and homogenized in TE buffer (50 mM Tris-HCl, 1 mM MgCl2, and 1 mM EDTA) using a polytron for 2×10 second bursts in the presence of protease inhibitors, followed by centrifugation at 45,000×g for 20 minutes. The final membrane pellet was re-homogenized in storage buffer (50 mM Tris-HCl, 1 mM MgCl2, and 1 mM EDTA and 10% sucrose) and frozen at −78° C. until used. Saturation binding reactions were initiated by the addition of membrane preparation (protein concentration of 20 μg/well for rat CB2) into wells of a deep well plate containing [^3H]CP 55,940 (120 Ci/mmol, a nonselective CB agonist commercially available from Tocris) in assay buffer (50 mM Tris, 2.5 mM EDTA, 5 mM MgCl2, and 0.5 mg/mL fatty acid free BSA, pH 7.4). After 45 min incubation at 30° C., binding reaction was terminated by the addition of 300 μl/well of cold assay buffer followed by rapid vacuum filtration through a UniFilter-96 GF/C filter plates (pre-soaked in 1 mg/mL BSA for 2 hours). The bound activity was counted in a TopCount using Microscint-20. Saturation experiments were conducted with twelve concentrations of [^3H]CP 55,940 ranging from 0.01 to 8 nM. Competition experiments were conducted with 0.5 nM [^3H]CP 55,940 and five concentrations of displacing ligands selected from the range of 0.01 nM to […] addition of 10 μM unlabeled CP 55,940 (Tocris, Ellisville, Mo.) was used to assess nonspecific binding.

rat CB2 [2] = target: T1, rat CB2; experiment: CB2 cyclase functional assay (HitHunter cAMP); format: cell-based; settings: HEK cells, forskolin 18 μM
Experimental: (§2) The cyclase functional assays were performed using the HitHunter™ cAMP assay kit from DiscoveRx (Fremont, Calif.) according to vendor's protocol. Briefly, HEK cells expressing CB2 or CB1 receptors (rat or human) were detached using cell dissociation buffer (Invitrogen, Carlsbad, Calif.), dispersed and placed in suspension at 10,000 cells per well in 96 well plates prior to the assay. Cell suspensions were incubated at 37° C. for 20 min with variable concentrations of test ligands and or 10 μM CP 55,940-positive control in the presence of a fixed concentration of forskolin (18 μM for rat CB2 and 37 μM for rat CB1) in Dulbescco's phosphate-buffered saline (Invitrogen, Carlsbad, Calif.) supplemented with bovine serum albumin (0.01% final concentration). The reactions were terminated by the addition of lysis buffer and the luminescence was detected following the procedure according to the manufacturer's instructions. EC50 values were calculated using sigmoidal dose-response curve fitting from Prism (GraphPad).

rat CB1 = rat CB1 (Rattus norvegicus (Rat), UniProt P20272); experiment: CB1 cyclase functional assay (HitHunter cAMP); format: cell-based; settings: HEK cells, forskolin 37 μM; read-out: rCB1 cyclase (EC50)
Experimental: as §2

[3] = HEK293 membranes, 0.5 nM [3H]CP 55,940, read-out: human CB2 (Ki)
[4] = HEK293 membranes, 0.5 nM [3H]CP 55,940, read-out: rat CB2 (Ki)

Sequence of human CB2 receptors (P34972 whole entry): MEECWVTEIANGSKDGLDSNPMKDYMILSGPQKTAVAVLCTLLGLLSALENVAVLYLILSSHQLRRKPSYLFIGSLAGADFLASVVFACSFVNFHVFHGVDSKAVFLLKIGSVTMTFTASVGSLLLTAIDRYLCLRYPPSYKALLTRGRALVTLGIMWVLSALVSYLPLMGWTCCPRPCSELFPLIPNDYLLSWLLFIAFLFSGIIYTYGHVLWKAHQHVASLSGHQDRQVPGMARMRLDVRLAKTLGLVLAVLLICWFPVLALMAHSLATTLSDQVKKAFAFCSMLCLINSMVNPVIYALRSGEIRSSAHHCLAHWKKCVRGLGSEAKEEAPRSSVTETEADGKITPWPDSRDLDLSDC

CCCCn1nc(C(C)(C)C)s/c1=N\C(=O)c1cc(C(F)(F)F)ccc1ONC(C)(C)C [Example 34, 2-[(tert-butylamino)oxy]-N-[(2Z)-3-butyl-5-tert-butyl-1,3,4-thiadiazol-2(3H)-ylidene]-5-(trifluoromethyl)benzamide]
Ki (human CB2 receptors; [3]): 11 nM | Ki (rat CB2 [1]; [4]): 1.9 nM | EC50 (rat CB2 [2]): 0.43 nM | EC50 (rat CB1): > 27000 nM

CC(C)(C)NOc1ccc(C(F)(F)F)cc1C(=O)/N=c1\sc(C(C)(C)C)nn1CCCC(F)(F)F [Example 164, 2-[(tert-butylamino)oxy]-N-[(2Z)-5-tert-butyl-3-(4,4,4-trifluorobutyl)-1,3,4-thiadiazol-2(3H)-ylidene]-5-(trifluoromethyl)benzamide]
Ki (human CB2 receptors; [3]): 1.8 nM | Ki (rat CB2 [1]; [4]): 0.3 nM | EC50 (rat CB2 [2]): 0.28 nM | EC50 (rat CB1): 1020 nM

CC(C)(C)NOc1ccc(C(F)(F)F)cc1C(=O)/N=c1\sc(C(C)(C)C)nn1CCCC#N [Example 151, 2-[(tert-butylamino)oxy]-N-[(2Z)-5-tert-butyl-3-(3-cyanopropyl)-1,3,4-thiadiazol-2(3H)-ylidene]-5-(trifluoromethyl)benzamide]
Ki (human CB2 receptors; [3]): 4.3 nM | Ki (rat CB2 [1]; [4]): 1.2 nM | EC50 (rat CB2 [2]): 0.13 nM | EC50 (rat CB1): 938 nM

CCCCn1nc(C(C)(C)C)s/c1=N\C(=O)c1cc(C(F)(F)F)ccc1ON=C(N)C(C)(C)C [Example 166, 2-({[1-amino-2,2-dimethylpropylidene]amino}oxy)-N-[(2Z)-3-butyl-5-tert-butyl-1,3,4-thiadiazol-2(3H)-ylidene]-5-(trifluoromethyl)benzamide]
Ki (human CB2 receptors; [3]): 65 nM | Ki (rat CB2 [1]; [4]): 43 nM | EC50 (rat CB2 [2]): 3.14 nM | EC50 (rat CB1): 6960 nM

CC(C)(C)NOc1ccc(C(F)(F)F)cc1C(=O)/N=c1\sc(C(C)(C)C)nn1C[C@H]1CCCO1 [Example 153, 2-[(tert-butylamino)oxy]-N-[(2Z)-5-tert-butyl-3-[(2R)-tetrahydrofuran-2-ylmethyl]-1,3,4-thiadiazol-2(3H)-ylidene]-5-(trifluoromethyl)benzamide]
Ki (human CB2 receptors; [3]): 10 nM | Ki (rat CB2 [1]; [4]): 3.2 nM | EC50 (rat CB2 [2]): 0.24 nM | EC50 (rat CB1): > 27000 nM

CCCCn1nc(C(C)(C)C)s/c1=N\C(=O)c1cc(C(F)(F)F)ccc1ONC(=O)OC(C)(C)C [Example 141, tert-butyl 2-({[(2Z)-3-butyl-5-tert-butyl-1,3,4-thiadiazol-2(3H)-ylidene]amino}carbonyl)-4-(trifluoromethyl)phenoxycarbamate]
Ki (human CB2 receptors): 0.32 nM | Ki (rat CB2 [1]): 2.3 nM | EC50 (rat CB2 [2]): 1.12 nM | EC50 (rat CB1): 273 nM

CCCCn1nc(C(C)(C)C)s/c1=N\C(=O)c1cc(C(F)(F)F)ccc1ON=C(C)C(F)(F)F [Example 172, N-[(2Z)-3-butyl-5-tert-butyl-1,3,4-thiadiazol-2(3H)-ylidene]-5-(trifluoromethyl)-2-({[2,2,2-trifluoro-1-methylethylidene]amino}oxy)benzamide]
Ki (human CB2 receptors; [3]): 52 nM | Ki (rat CB2 [1]; [4]): 60 nM | EC50 (rat CB2 [2]): 28 nM | EC50 (rat CB1): > 27000 nM

Cn1c(C(C)(C)C)c/c(=N\C(=O)c2cc(C(F)(F)F)ccc2ONC(C)(C)C)n1C[C@H]1CCCO1 [Example 142, 2-[(tert-butylamino)oxy]-N-{(3E)-5-tert-butyl-1-methyl-2-[(2R)-tetrahydrofuran-2-ylmethyl]-1,2-dihydro-3H-pyrazol-3-ylidene}-5-(trifluoromethyl)benzamide]
Ki (human CB2 receptors): 24 nM | Ki (rat CB2 [1]): 9.4 nM | EC50 (rat CB1): > 27000 nM

CCCCn1nc(C(C)(C)C)s/c1=N\C(=O)c1cc(C(F)(F)F)ccc1NNc1ccccn1 [Example 183, N-[(2Z)-3-butyl-5-tert-butyl-1,3,4-thiadiazol-2(3H)-ylidene]-2-(2-pyridin-2-ylhydrazino)-5-(trifluoromethyl)benzamide]
Ki (human CB2 receptors; [3]): 32 nM | Ki (rat CB2 [1]; [4]): 5.6 nM

CCCCn1nc(C(C)(C)C)s/c1=N\C(=O)c1cc(C(F)(F)F)ccc1NNCc1ccccc1 [Example 202, 2-(2-benzylhydrazino)-N-[(2Z)-3-butyl-5-tert-butyl-1,3,4-thiadiazol-2(3H)-ylidene]-5-(trifluoromethyl)benzamide]
Ki (human CB2 receptors; [3]): 43 nM | Ki (rat CB2 [1]; [4]): 36 nM

Cn1c(C(C)(C)C)c/c(=N\C(=O)c2cc(C(F)(F)F)ccc2ONC(C)(C)C)n1CC1CCC1 [Example 155, 2-[(tert-butylamino)oxy]-N-[(3E)-5-tert-butyl-2-(cyclobutylmethyl)-1-methyl-1,2-dihydro-3H-pyrazol-3-ylidene]-5-(trifluoromethyl)benzamide]
Ki (human CB2 receptors): 27 nM | Ki (rat CB2 [1]): 14 nM

Cn1c(C(C)(C)C)c/c(=N\C(=O)c2cc(C#N)ccc2ONC(C)(C)C)n1C[C@H]1CCCO1 [Example 161, 2-[(tert-butylamino)oxy]-N-{(3E)-5-tert-butyl-1-methyl-2-[(2R)-tetrahydrofuran-2-ylmethyl]-1,2-dihydro-3H-pyrazol-3-ylidene}-5-cyanobenzamide]
Ki (human CB2 receptors; [3]): 209 nM | Ki (rat CB2 [1]; [4]): 11 nM

CCCCn1nc(C(C)(C)C)s/c1=N\C(=O)c1cc(C(F)(F)F)ccc1ON=C(N)c1ccccn1 [Example 196, 2-({[amino(pyridin-2-yl)methylene]amino}oxy)-N-[(2Z)-3-butyl-5-tert-butyl-1,3,4-thiadiazol-2(3H)-ylidene]-5-(trifluoromethyl)benzamide]
Ki (human CB2 receptors; [3]): 18 nM | Ki (rat CB2 [1]; [4]): 4.1 nM

C/C(=N\Oc1ccc(C(F)(F)F)cc1C(=O)/N=c1\cc(C(C)(C)C)n(C)n1C[C@H]1CCCO1)C(F)(F)F [Example 178, N-{(3E)-5-tert-butyl-1-methyl-2-[(2R)-tetrahydrofuran-2-ylmethyl]-1,2-dihydro-3H-pyrazol-3-ylidene}-5-(trifluoromethyl)-2-({[(1E)-2,2,2-trifluoro-1-methylethylidene]amino}oxy)benzamide]
Ki (human CB2 receptors; [3]): > 1000 nM | Ki (rat CB2 [1]; [4]): 40 nM

CCCCn1ccc(C(C)(C)C)c/c1=N\C(=O)c1cc(C(F)(F)F)ccc1ONC(C)(C)C [Example 157, 2-[(tert-butylamino)oxy]-N-[(2E)-1-butyl-4-tert-butylpyridin-2(1H)-ylidene]-5-(trifluoromethyl)benzamide]
Ki (human CB2 receptors; [3]): 128 nM | Ki (rat CB2 [1]; [4]): 9.4 nM

CCCCn1nc(C(C)(C)C)s/c1=N\C(=O)c1cc(C(F)(F)F)ccc1ON=C(N)C(C)C [Example 175, 2-({[1-amino-2-methylpropylidene]amino}oxy)-N-[(2Z)-3-butyl-5-tert-butyl-1,3,4-thiadiazol-2(3H)-ylidene]-5-(trifluoromethyl)benzamide]
Ki (human CB2 receptors; [3]): 5.3 nM | Ki (rat CB2 [1]; [4]): 2.9 nM

CCCCn1nc(C(C)(C)C)s/c1=N\C(=O)c1cc(C(F)(F)F)ccc1/N=N/C(C)(C)C [Example 148, N-[(2Z)-3-butyl-5-tert-butyl-1,3,4-thiadiazol-2(3H)-ylidene]-2-[(E)-tert-butyldiazenyl]-5-(trifluoromethyl)benzamide]
Ki (human CB2 receptors; [3]): 6.2 nM | Ki (rat CB2 [1]; [4]): 15 nM

CCCCn1nc(C(C)(C)C)s/c1=N\C(=O)c1cc(C(F)(F)F)ccc1N(C)N(C)C(=O)OC(C)(C)C [Example 184]
Ki (human CB2 receptors; [3]): 279 nM | Ki (rat CB2 [1]; [4]): 35 nM
